# Activity calls are given as the source filed them. The rule behind the calls is not given here. Numbered stars: 1 amine (or outer) side, 2 acyl side, 3 side chain; on linkers, the order of the positions; unused ones are H or OH. Bridge positions count the residues as written; N and C are the ends. Square brackets hold non-standard residues; d marks the D form. Peptide text beside a SMILES is read from it. I, II: the chains in the order shown. X1 = O=C1CC([*:2])C(=O)N1CCCCCC(=O)[*:1]; Dab = NCC[C@H](N)C(=O)O
# What was measured:
# [1] = system: Staphylococcus aureus; test: Bactericidal activity against Staphylococcus aureus ATCC 12600 assessed as inhibition of bacterial growth incubated for 18 to 24 hrs; assay type: functional; conditions: time 18-24 hrs
# [2] = system: Staphylococcus epidermidis; test: Bactericidal activity against Staphylococcus epidermidis ATCC 12228 assessed as inhibition of bacterial growth incubated for 18 to 24 hrs; assay type: functional; conditions: time 18-24 hrs
# [3] = system: Streptococcus mutans; test: Antibacterial activity against Streptococcus mutans UA159 assessed as inhibition of bacterial growth incubated for 18 to 24 hrs; assay type: functional; conditions: time 18-24 hrs
# [4] = system: Streptococcus mutans; test: Antibacterial activity against Streptococcus mutans ATCC 25175 assessed as inhibition of bacterial growth incubated for 18 to 24 hrs; assay type: functional; conditions: time 18-24 hrs
# [5] = Binding affinity to AgrC-I extra-loop-II (unknown origin) assessed as dissociation constant incubated for 10 mins by isothermal titration calorimetry analysis
# [6] = Binding affinity to AgrC-I extra-loop-II (unknown origin) assessed as change in enthalpy incubated for 10 mins by isothermal titration calorimetry analysis
# [7] = organism: Homo sapiens; test: Binding affinity to AgrC-I extra-loop-I (unknown origin) assessed as gibbs free energy change incubated for 10 mins by isothermal titration calorimetry analysis
# [8] = organism: Homo sapiens; test: Binding affinity to AgrC-I extra-loop-II (unknown origin) assessed as gibbs free energy change incubated for 10 mins by isothermal titration calorimetry analysis
# [9] = system: Staphylococcus aureus; test: Inhibition of biofilm formation in Staphylococcus aureus at 0.78 to 1.56 uM incubated for 24 hrs by crystal violet staining based analysis; assay type: functional, organism-based; conditions: dose 0.78-1.56 µM
# [10] = system: Staphylococcus aureus; test: Inhibition of biofilm formation in Staphylococcus aureus incubated for 24 hrs by crystal violet staining based microscopic analysis; assay type: functional, organism-based
# [11] = system: Cell membrane; test: Induction of cell membrane damage in Staphylococcus aureus ATCC 6538p assessed as increase in fluorescent intensity incubated for 30 mins by PI staining based flow cytometry assay
# [12] = Toxicity in Kunming mouse infected with Staphylococcus aureus ATCC 6538p assessed as animal survival rate 15 mg/kg, ip pre-infected with bacteria for 1 hr followed by compound administration and measured after 7 days; assay type: organism-based; conditions: in vivo, 168 h, time 7 day
smiles,measurement,setting,value
CC[C@H](C)[C@H](NC(=O)CNC(=O)CNC(=O)[C@@H](N)CSC1CC(=O)N(CCCCCC(=O)NCC(=O)N[C@H](C(=O)N[C@@H](CCCCN)C(=O)N[C@@H](CC(N)=O)C(=O)N[C@@H](CC(C)C)C(=O)N[C@@H](Cc2c[nH]c3ccccc23)C(=O)N[C@@H](CCCCN)C(=O)N[C@@H](CCCCN)C(=O)N[C@@H](CCSC)C(=O)N[C@H](C(=O)N[C@@H](CCCCN)C(=O)N[C@@H](CC(C)C)C(=O)N[C@@H](Cc2c[nH]c3ccccc23)C(=O)N[C@@H](Cc2ccc(O)cc2)C(=O)O)[C@@H](C)CC)[C@@H](C)CC)C1=O)C(=O)N[C@@H](CC(N)=O)C(=O)N[C@H]1CCNC(=O)[C@H](CC(C)C)NC(=O)[C@H](CC(C)C)NC(=O)[C@H](Cc2ccccc2)NC(=O)[C@H](C)NC1=O (some centres not stated) (I: GIKNLWKKMIKLWY-OH / II: H-CGGIN[Dab]AFLL; linker I:N-II:1 via X1; lactam II:6-II:C),MBC,[1],3.13 µM
same,MBC,[2],3.13 µM
same,MIC,[3],6.25 µM
same,MIC,[4],3.13 µM
same,Kd,[5],1 pM
same,deltaH,[6],inactive
same,deltaG,[7],-16.4 kcal/mol
same,deltaG,[8],-16.4 kcal/mol
same,inhibition,[9],Active
same,inhibition,[10],Active
same,Activity,[11],Active
same,Activity,[12],20%
